Experimental data published in the CheMixHub ionic liquid set.

Experiment: xn = mol fraction of the nth substance listed

CCCC[n+]1ccn(C)c1.C[C@H](N)C(=O)[O-] + O
viscosity [mPa·s], 100.3 kPa
Details | 288.15 K | 293.15 K | 298.15 K | 303.15 K | 308.15 K | 313.15 K | 318.15 K | 323.15 K | 328.15 K
x1 = 0.0002936 | 1.156 | 1.017 | 0.9 | 0.81 | 0.726 | 0.661 | 0.604 | 0.554 | 0.511
x1 = 0.0003927 | 1.162 | 1.022 | 0.907 | 0.813 | 0.732 | 0.664 | 0.606 | 0.557 | 0.513
x1 = 0.0004989 | 1.167 | 1.027 | 0.911 | 0.817 | 0.735 | 0.666 | 0.608 | 0.559 | 0.515
x1 = 0.0009775 | 1.203 | 1.057 | 0.937 | 0.838 | 0.755 | 0.685 | 0.626 | 0.573 | 0.529
x1 = 0.002927 | 1.361 | 1.197 | 1.057 | 0.939 | 0.842 | 0.759 | 0.688 | 0.629 | –
x1 = 0.004981 | 1.513 | 1.326 | 1.163 | 1.028 | 0.917 | 0.827 | 0.749 | 0.685 | –
x1 = 0.007048 | 1.658 | 1.446 | 1.273 | 1.119 | 0.997 | 0.894 | 0.806 | 0.736 | –
x1 = 0.009016 | 1.821 | 1.575 | 1.368 | 1.209 | 1.07 | 0.959 | 0.867 | 0.781 | –
x1 = 0.01103 | 1.957 | 1.697 | 1.477 | 1.301 | 1.147 | 1.027 | 0.929 | 0.832 | –
x1 = 0.01317 | 2.101 | 1.819 | 1.58 | 1.38 | 1.225 | 1.089 | 0.986 | 0.888 | –
x1 = 0.01511 | 2.246 | 1.941 | 1.677 | 1.469 | 1.292 | 1.156 | 1.037 | 0.932 | –
x1 = 0.01781 | 2.459 | 2.107 | 1.825 | 1.598 | 1.393 | 1.253 | 1.115 | 0.999 | –

CC[N+](CC)(CC)CCCS(=O)(=O)O.F[B-](F)(F)F + O
298 K, 101 kPa
Details | electrical conductivity [S/m]
x1 = 0.00077 | 1.03
x1 = 0.002 | 1.68
x1 = 0.01495 | 2.42
x1 = 0.02005 | 2.22

CC[NH2+]CC.O=S(=O)([O-])O + O
Details | viscosity [mPa·s]
298.15 K, 101 kPa, x2 = 0.6088 | 32.1

CCn1cc[nH+]c1.O=S(=O)([N-]S(=O)(=O)C(F)(F)F)C(F)(F)F + O
Details | electrical conductivity [S/m] | viscosity [mPa·s]
297.55 K, 101 kPa, x1 = 0.5 | – | 15.8
297.55 K, 101 kPa, x1 = 0.889 | – | 44.9
303.15 K, 100 kPa, x1 = 0.366 | 1.77 | –
303.15 K, 100 kPa, x1 = 0.403 | 1.6 | –
303.15 K, 100 kPa, x1 = 0.427 | 1.53 | –
303.15 K, 100 kPa, x1 = 0.455 | 1.44 | –
303.15 K, 100 kPa, x1 = 0.491 | 1.35 | –
303.15 K, 100 kPa, x1 = 0.519 | 1.24 | –
303.15 K, 100 kPa, x1 = 0.554 | 1.15 | –
303.15 K, 100 kPa, x1 = 0.592 | 1.05 | –
303.15 K, 100 kPa, x1 = 0.634 | 0.948 | –
303.15 K, 100 kPa, x1 = 0.684 | 0.845 | –
303.15 K, 100 kPa, x1 = 0.712 | 0.785 | –
303.15 K, 100 kPa, x1 = 0.743 | 0.729 | –
303.15 K, 100 kPa, x1 = 0.776 | 0.672 | –
303.15 K, 100 kPa, x1 = 0.811 | 0.619 | –
303.15 K, 100 kPa, x1 = 0.851 | 0.57 | –
303.15 K, 100 kPa, x1 = 0.896 | 0.516 | –
303.15 K, 100 kPa, x1 = 0.943 | 0.464 | –
303.15 K, 100 kPa, x2 = 0.003 | 0.424 | –

CS(=O)(=O)[O-].C[N+](C)(CCO)CCO + O
101 kPa
Details | viscosity [mPa·s]
298.15 K, x1 = 0.1991 | 14.87
303.15 K, x1 = 0.2989 | 29.9
303.15 K, x1 = 0.6984 | 333
313.15 K, x1 = 0.4797 | 62.4
313.15 K, x1 = 0.6984 | 186
318.15 K, x1 = 0.2989 | 17.3
318.15 K, x1 = 0.4797 | 50.1
318.15 K, x1 = 1 | 378
323.15 K, x1 = 0.1991 | 6.85
323.15 K, x1 = 0.4797 | 40.9
323.15 K, x1 = 0.6984 | 112.1
323.15 K, x1 = 1 | 282

O=S(=O)([N-]S(=O)(=O)C(F)(F)F)C(F)(F)F.[Li+] + O
Details | electrical conductivity [S/m] | viscosity [mPa·s]
267.18 K, 100 kPa, x2 = 0.8271 | 1.02 | –
272.15 K, 100 kPa, x2 = 0.8855 | 2.04 | –
282.32 K, 100 kPa, x2 = 0.7538 | 0.699 | –
283 K, 101 kPa, x1 = 0.2649 | 0.62 | –
288.36 K, 100 kPa, x2 = 0.7538 | 0.861 | –
292.1 K, 100 kPa, x1 = 0.0039 | 0.966 | –
292.3 K, 100 kPa, x2 = 0.8065 | 1.98 | –
293 K, 100 kPa, x1 = 0.25 | – | 23.6
293 K, 101 kPa, x1 = 0.2649 | 0.89 | 69.2
296.88 K, 100 kPa, x2 = 0.8271 | 2.71 | –
298 K, 101 kPa, x1 = 0.005377 | 1.2 | 1.11
298 K, 101 kPa, x1 = 0.05933 | 5.79 | 3.11
298 K, 101 kPa, x1 = 0.112 | – | 5.56
298 K, 101 kPa, x1 = 0.1134 | 4.7 | –
298 K, 101 kPa, x1 = 0.1778 | 2.99 | –
298 K, 101 kPa, x1 = 0.2128 | 2.2 | 22.22
298 K, 101 kPa, x1 = 0.2639 | 0.97 | –
298 K, 101 kPa, x1 = 0.2649 | – | 51.3
298.1 K, 101 kPa, x1 = 0.2649 | 1.04 | 55.3
298.15 K, 100 kPa, x1 = 0.112 | – | 5.2
298.15 K, 100 kPa, x1 = 0.1896 | – | 15.8
298.15 K, 100 kPa, x1 = 0.2333 | – | 30.7
298.15 K, 100 kPa, x1 = 0.2547 | – | 42.3
298.15 K, 100 kPa, x1 = 0.2741 | – | 54.1
301.65 K, 100 kPa, x2 = 0.8271 | 3.13 | –
302.07 K, 100 kPa, x2 = 0.7538 | 1.38 | –
302.07 K, 100 kPa, x2 = 0.9148 | 5.85 | –
302.88 K, 100 kPa, x2 = 0.8495 | 4.06 | –
303 K, 101 kPa, x1 = 0.2649 | 1.22 | 45.4
307.05 K, 100 kPa, x2 = 0.8065 | 2.85 | –
307.24 K, 100 kPa, x2 = 0.9761 | 4.9 | –
308.08 K, 100 kPa, x2 = 0.7538 | 1.61 | –
308.15 K, 100 kPa, x1 = 0.112 | – | 4.3
308.15 K, 100 kPa, x1 = 0.1896 | – | 11.5
308.15 K, 100 kPa, x1 = 0.2333 | – | 21.5
308.15 K, 100 kPa, x1 = 0.2547 | – | 29
308.15 K, 100 kPa, x1 = 0.2741 | – | 36.1
312.24 K, 100 kPa, x2 = 0.8065 | 3.3 | –
312.86 K, 100 kPa, x2 = 0.6988 | 0.916 | –
313 K, 101 kPa, x1 = 0.2649 | 1.6 | 30.9
315.76 K, 100 kPa, x2 = 0.7857 | 2.85 | –
317.41 K, 100 kPa, x2 = 0.8271 | 4.37 | –
317.41 K, 100 kPa, x2 = 0.8495 | 5.49 | –
318.15 K, 100 kPa, x1 = 0.112 | – | 3.4
318.15 K, 100 kPa, x1 = 0.1896 | – | 8.6
318.15 K, 100 kPa, x1 = 0.2333 | – | 15.8
318.15 K, 100 kPa, x1 = 0.2547 | – | 20.9
318.15 K, 100 kPa, x1 = 0.2741 | – | 25.5
318.47 K, 100 kPa, x2 = 0.6988 | 1.07 | –
320.96 K, 100 kPa, x2 = 0.7857 | 3.2 | –
321.15 K, 100 kPa, x2 = 0.9761 | 6.42 | –
322.41 K, 100 kPa, x2 = 0.7538 | 2.29 | –
323 K, 101 kPa, x1 = 0.2649 | 2.04 | 21.8
327.61 K, 100 kPa, x2 = 0.8271 | 5.33 | –
327.8 K, 100 kPa, x2 = 0.6988 | 1.36 | –
328.15 K, 100 kPa, x1 = 0.112 | – | 2.8
328.15 K, 100 kPa, x1 = 0.1896 | – | 6.6
328.15 K, 100 kPa, x1 = 0.2333 | – | 12
328.15 K, 100 kPa, x1 = 0.2547 | – | 15.6
328.15 K, 100 kPa, x1 = 0.2741 | – | 18.7
329.06 K, 100 kPa, x2 = 0.7857 | 3.73 | –
331.74 K, 100 kPa, x2 = 0.8271 | 5.85 | –
331.96 K, 100 kPa, x2 = 0.8065 | 4.85 | –
332.16 K, 100 kPa, x2 = 0.8855 | 8.87 | –
332.58 K, 100 kPa, x2 = 0.9148 | 10.1 | –
333 K, 100 kPa, x2 = 0.7538 | 2.85 | –
333 K, 100 kPa, x2 = 0.8495 | 7.06 | –
333 K, 101 kPa, x1 = 0.2649 | 2.58 | 16.2
334.65 K, 100 kPa, x2 = 0.7857 | 4.15 | –
336.52 K, 100 kPa, x2 = 0.8855 | 9.74 | –
339.84 K, 100 kPa, x2 = 0.7857 | 4.6 | –
341.52 K, 100 kPa, x2 = 0.8271 | 6.77 | –
341.94 K, 100 kPa, x1 = 0.0039 | 2.36 | –
342.13 K, 100 kPa, x2 = 0.6601 | 1.19 | –
342.75 K, 100 kPa, x2 = 0.8065 | 5.73 | –
343.17 K, 100 kPa, x2 = 0.7538 | 3.44 | –
347.11 K, 100 kPa, x1 = 0.0039 | 2.52 | –
347.33 K, 100 kPa, x2 = 0.6988 | 2.11 | –
347.53 K, 100 kPa, x2 = 0.9761 | 9.34 | –
347.94 K, 100 kPa, x2 = 0.8495 | 8.69 | –
352.3 K, 100 kPa, x2 = 0.8855 | 11.8 | –
352.92 K, 100 kPa, x2 = 0.8065 | 6.69 | –
356.24 K, 100 kPa, x2 = 0.7857 | 5.78 | –
357.3 K, 100 kPa, x2 = 0.8855 | 12.1 | –
357.7 K, 100 kPa, x2 = 0.9148 | 13.9 | –
